Reference: US7772216B2, “Protein kinase and phosphatase inhibitors and methods for designing them” (The Research Foundation of State University of New York, priority 2001, dated 2010)
“And” between values parts separate entries of the source, which are not always exact repeats. Equal entries are not always repeated. Where two headings read alike, the source gives them in different places. Each block holds one compound with its values, some of them ahead of it. Starred links: 1 amine or outer side, 2 acyl side, 3 side chain; linkers in the order of their positions; H or OH if unused. Non-standard residues stand in square brackets, D forms with d. Residues, ends and D or L forms follow the SMILES beside them. X5 = O=C([C@H](CNS(=O)(=O)O)N[*:1])[*:2]; X6 = NS(=O)(=O)CC[C@H](N[*:1])C(=O)[*:2]; X2 = O=C([C@@H](CB(O)O)N[*:1])[*:2]; X3 = O=C([C@H](CCB(O)O)N[*:1])[*:2]; X1 = O=C([C@H](CB(O)O)N[*:1])[*:2]

Key:
[1] = target: EGFRTK (Homo sapiens, UniProt P00533); assay: EGFRTK inhibition; format: biochemical; conditions: % inhibition at 10 micromolar compound
Description: (§1) Blanks for a particular enzyme indicate that inhibition was not found.

[2] = target: T1, PTP-1B (Homo sapiens, UniProt P18031); assay: PTP-1B inhibition; format: biochemical; conditions: % inhibition at 10 micromolar compound
T1 sequence (P18031 1-435): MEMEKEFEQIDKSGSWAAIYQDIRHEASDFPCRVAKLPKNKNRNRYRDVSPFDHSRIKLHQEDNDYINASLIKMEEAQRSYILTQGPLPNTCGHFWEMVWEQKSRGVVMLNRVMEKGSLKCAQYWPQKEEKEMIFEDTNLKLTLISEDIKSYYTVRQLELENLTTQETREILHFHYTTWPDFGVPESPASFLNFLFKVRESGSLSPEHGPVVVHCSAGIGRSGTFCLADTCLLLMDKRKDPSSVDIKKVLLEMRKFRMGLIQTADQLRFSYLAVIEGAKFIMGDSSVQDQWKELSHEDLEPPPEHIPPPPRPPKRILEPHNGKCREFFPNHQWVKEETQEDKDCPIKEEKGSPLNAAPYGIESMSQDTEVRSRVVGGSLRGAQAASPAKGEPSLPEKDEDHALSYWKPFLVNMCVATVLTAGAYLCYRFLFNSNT
Description: as §1

[3] = target: T2, PKA (Homo sapiens, UniProt P17612); assay: Literature Mimetic PKA assay; format: biochemical; conditions: for Ki: Literature Mimetic (L) conditions, pentapeptide PKA inhibitors; for IC50: Literature Mimetic
Description: (§2) The boronic acid inhibitors 21-24 have two Arg's in their sequence also and therefore will bind to the phosphocellulose paper in addition to Kemptamide (although not as consistently or completely due to one less positive charge). Consequently, when analyzed as inhibitors, the amount of phosphorylated Kemptamide produced was not only counted, but also the amount of phosphorylated inhibitor simultaneously produced (e.g. see 26 below). The net result is that distorted IC50 curves are obtained which show net “stimulation” at higher inhibitor concentrations in some cases. […] The underlying substrate behavior of these “inhibitors” makes an accurate measurement of their inhibition potency impossible with the current assay. However, it does appear from the data that homologating the boronic acid functionality out with only CH2 groups (homologations with boronic acid non-peptide Src inhibitors may also be carried out) decreases the binding affinity and ability to function as a substrate.

[4] = target: pp60^c-src (Homo sapiens, UniProt P12931); assay: Cellular Mimetic Src assay (RR-SRC phosphorylation); conditions: for Ki: Table IV; for inhibition at 1000 µM: read-out: % Inhibition of 2 mM RR-src at Inhibitor Concentration (1 mM)
[5] = target: T2, PKA; assay: Cellular Mimetic PKA assay; format: biochemical; conditions: for % sti (stimulation) / inhibition at 2000 µM: 2000 μM inhibitor, C; for IC50: Cellular Mimetic
Description: as §2
Phosphorylated Kemptamide is SEQ. ID. No. 6. Phosphorylated 22 is SEQ. ID. No. 4. […] The graphs show their respective rates and levels of phosphorylation with the typical loss of initial velocity kinetics with time (due to substrate depletion and end product inhibition), analogous to a standard L-Ser substrate such as Kemptamide. The comparison of 21 to 22 shown was done in the same assay run, at identical boronic acid substrate concentrations, and with identical Cellular Mimetic assay solutions so that the cpm's could be directly compared. […] That the boronic acid moiety would be phosphorylated by PKA was surprising, but it is even more surprising that the phosphonic-boronic acid mixed anhydride produced (e.g. 26) was stable enough to survive the pH 7.2/37° C. assay incubation and then be isolated by binding to phosphocellulose paper after acid quenching of the reaction with 10% TCA and washing the phosphocellulose paper with 25 mM phosphoric acid (3×). An STN substructure search was run on mixed anhydrides of phosphoric and boronic acids and found only three references to experiments and theoretical calculations for the analogous putative (but not proven) anhydride formed from boric acid and phosphoric acid as a solid surface impregnated catalyst for the partial oxidation of ethane to acetaldehyde at 823° K. (Zhanpeisov & Otsuka, 1992, Otsuka et al., 1992, Murakami et al., 1990). However, this highly unusual anhydride has never before been synthesized free of a solid surface, isolated, or characterized. Thus, this is a novel enzymatic reaction and chemical entity with interesting possibilities for protein kinase inhibitor designs.

[6] = 0 h preincubation, read-out: IC50 μM (cond. L, 0 h preincubation)
[7] = read-out: % Inhibition at 100 μM (std. dev.)
[8] = 0 h preincubation, * very distorted IC50 curve, read-out: IC50 μM (cond. C, 0 h preincubation)
[9] = IC50 μM (cond. L, 4 h preincubation), 4 h preincubation, * very distorted IC50 curve
[10] = read-out: % Inhibition of 2 mM RR-src at Inhibitor Concentration (100 μM)

Sequence of pp60^c-src (P12931 whole entry): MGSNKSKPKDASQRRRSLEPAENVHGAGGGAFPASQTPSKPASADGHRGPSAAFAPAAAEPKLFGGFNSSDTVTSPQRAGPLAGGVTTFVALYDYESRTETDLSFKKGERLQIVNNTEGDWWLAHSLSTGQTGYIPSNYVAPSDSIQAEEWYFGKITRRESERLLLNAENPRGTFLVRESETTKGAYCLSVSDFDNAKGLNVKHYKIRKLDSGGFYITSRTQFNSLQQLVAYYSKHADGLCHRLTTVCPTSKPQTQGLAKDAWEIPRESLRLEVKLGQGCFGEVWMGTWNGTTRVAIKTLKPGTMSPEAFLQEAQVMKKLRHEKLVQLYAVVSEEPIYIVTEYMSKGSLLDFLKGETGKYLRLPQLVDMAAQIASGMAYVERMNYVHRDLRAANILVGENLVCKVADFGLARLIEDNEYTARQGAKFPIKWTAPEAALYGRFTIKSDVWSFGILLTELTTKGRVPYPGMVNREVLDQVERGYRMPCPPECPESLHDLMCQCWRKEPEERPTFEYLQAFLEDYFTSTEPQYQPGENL
Sequence of EGFRTK (P00533 25-1210): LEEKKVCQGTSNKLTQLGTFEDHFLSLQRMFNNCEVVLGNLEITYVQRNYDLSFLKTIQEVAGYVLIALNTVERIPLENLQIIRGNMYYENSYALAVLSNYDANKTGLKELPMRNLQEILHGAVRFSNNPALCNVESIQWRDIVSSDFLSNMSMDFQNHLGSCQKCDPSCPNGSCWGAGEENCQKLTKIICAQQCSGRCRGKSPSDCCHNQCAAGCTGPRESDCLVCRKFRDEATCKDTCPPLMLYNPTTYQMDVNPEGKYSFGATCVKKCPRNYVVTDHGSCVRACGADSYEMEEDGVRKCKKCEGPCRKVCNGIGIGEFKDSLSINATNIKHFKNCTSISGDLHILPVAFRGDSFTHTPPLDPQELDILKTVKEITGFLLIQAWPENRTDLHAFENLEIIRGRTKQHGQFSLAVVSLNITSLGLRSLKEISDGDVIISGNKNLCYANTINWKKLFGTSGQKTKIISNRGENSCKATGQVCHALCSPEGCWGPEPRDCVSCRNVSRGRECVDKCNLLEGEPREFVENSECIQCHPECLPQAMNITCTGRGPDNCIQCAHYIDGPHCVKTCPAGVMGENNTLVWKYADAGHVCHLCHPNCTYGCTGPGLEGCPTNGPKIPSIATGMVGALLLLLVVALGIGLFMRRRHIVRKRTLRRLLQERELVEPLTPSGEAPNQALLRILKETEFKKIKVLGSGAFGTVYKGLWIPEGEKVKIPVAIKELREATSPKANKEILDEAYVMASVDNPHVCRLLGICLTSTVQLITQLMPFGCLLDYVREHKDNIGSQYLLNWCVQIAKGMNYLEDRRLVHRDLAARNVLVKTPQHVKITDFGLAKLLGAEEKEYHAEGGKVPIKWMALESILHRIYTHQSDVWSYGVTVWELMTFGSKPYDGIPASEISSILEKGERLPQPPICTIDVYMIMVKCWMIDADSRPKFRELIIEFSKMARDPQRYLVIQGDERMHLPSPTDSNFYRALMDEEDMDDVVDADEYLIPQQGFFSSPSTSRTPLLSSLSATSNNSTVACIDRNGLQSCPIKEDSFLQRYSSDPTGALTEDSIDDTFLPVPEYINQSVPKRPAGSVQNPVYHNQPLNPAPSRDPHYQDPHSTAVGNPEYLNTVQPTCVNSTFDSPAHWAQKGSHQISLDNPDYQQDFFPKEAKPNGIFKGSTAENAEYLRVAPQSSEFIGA

Compound: O=C(NCc1ccc(Br)cc1)c1cc2cc(F)ccc2[nH]1 [Compound 1kkkk]
EGFRTK @ 10 μm [1]: 30%

Compound: CCCOc1ccc(CNC(=O)c2cc3cc(F)ccc3[nH]2)cc1O [Compound 1nnnn]
EGFRTK @ 10 μm [1]: 17%

Compound: O=C(NCCCCCCO)c1cc2cc(F)ccc2[nH]1 [Compound 1qqqq]
EGFRTK @ 10 μm [1]: 18%

Compound: O=C(NCc1ccc(F)cc1)c1cc2cc(F)ccc2[nH]1 [Compound 1uuu]
PTP-1B @ 10 μm [2]: 13%

Compound: O=C(NCc1ccccc1Cl)c1cc2cc(F)ccc2[nH]1 [Compound 1yy]
PTP-1B @ 10 μm [2]: 10%

Compound: O=C(NCc1ccc(F)cc1C(F)(F)F)c1[nH]c2ccc(F)cc2c1-c1ccccc1 [Compound 2hh]
EGFRTK @ 10 μm [1]: 12%

Compound: CC[C@H](C)[C@H](NC(=O)[C@H](CNS(=O)(=O)O)NC(=O)CNC(=O)[C@H](CCCNC(=N)N)NC(=O)[C@H](CCCNC(=N)N)NC(C)=O)C(N)=O [Compound 8] (Ac-RRG[X5]I-NH2)
Ki ([3]; Ki): 0.16 µM

Compound: CC[C@H](C)[C@H](NC(=O)[C@H](CB(O)O)NC(=O)CNC(=O)[C@H](CCCNC(=N)N)NC(=O)[C@H](CCCNC(=N)N)NC(C)=O)C(N)=O [Compound 21] (Ac-RRG[X1]I-NH2)
inhibition at 500 µM ([3]; 500 μM inhibitor, L, 4 h preincubation): 34% | Ki ([3]; read-out: Ki): ~9 µM | IC50 [3, 6]: 249 µM | inhibition at 100 µM [4, 7]: 54% | % sti (stimulation) ([5]; 4 h preincubation): 19% | % sti (stimulation) ([5]; 4 h preincubation, listed as drawing 32): *2000 μM 19% sti | IC50 [5, 8]: 764 µM

Compound: CC[C@H](C)[C@H](NC(=O)[C@@H](CB(O)O)NC(=O)CNC(=O)[C@H](CCCNC(=N)N)NC(=O)[C@H](CCCNC(=N)N)NC(C)=O)C(N)=O [Compound 22] (Ac-RRG[X2]I-NH2)
IC50 [3, 9]: 65 µM | IC50 [3, 6]: 81 µM | % sti (stimulation) ([5]; 4 h preincubation): 71% | % sti (stimulation) ([5]; 4 h preincubation, listed as drawing 33): *2000 μM 71% sti | IC50 [5, 8]: 1750 µM

Compound: CC[C@H](C)[C@H](NC(=O)[C@H](CCB(O)O)NC(=O)CNC(=O)[C@H](CCCNC(=N)N)NC(=O)[C@H](CCCNC(=N)N)NC(C)=O)C(N)=O [Compound 23] (Ac-RRG[X3]I-NH2)
IC50 [3, 9]: 133 µM | IC50 [3, 6]: 398 µM | inhibition at 2000 µM ([5]; 0 h preincubation): 16% | % sti (stimulation) ([5]; 4 h preincubation): 5% | inhibition at 2000 µM ([5]; 4 h preincubation): 5%

Compound: OB(O)c1ccc2ccccc2c1 [Compound 27, 2-naphthalene boronic acid]
IC50 [4]: 950 µM | Ki [4]: ~554 µM and 554 µM | inhibition at 100 µM [4, 10]: 13% | inhibition at 1000 µM [4]: 59%

Compound: Oc1cc(O)cc(/C=C/c2ccc(O)c(O)c2)c1 [Piceatannol, reference compound]
inhibition at 100 µM ([4]; read-out: % Inhibition at 100 μM (std. dev.), Table IX, hydroxynaphthalene derivatives and published inhibitors): 41%

Compound: Oc1cc(O)cc(/C=C/c2ccc(O)c(O)c2)c1 [drawing 66, piceatannol, reference compound]
inhibition at 100 µM ([4]; read-out: % Inhibition of 2 mM RR-src at Inhibitor Concentration (100 μM), Table V, inhibitor 100 μM): 41%

Now from value to compound:

PTP-1B @ 10 μm [2]: 12%
Compound: O=C(NCc1ccc(Cl)cc1Cl)c1cc2cc(F)ccc2[nH]1 [Compound 1ss]

PTP-1B @ 10 μm [2]: 12%
Compound: O=C(Nc1ccccc1CO)c1cc2cc(F)ccc2[nH]1 [Compound 1xxx]

EGFRTK @ 10 μm [1]: 11%
Compound: O=C(Nc1cccc(CO)c1)c1cc2cc(F)ccc2[nH]1 [Compound 1yyy]

EGFRTK @ 10 μm [1]: 10%
Compound: O=C(NCc1cc(Br)ccc1F)c1[nH]c2ccc(F)cc2c1-c1ccccc1 [Compound 2ll]

Ki ([3]; read-out: Ki): 300 µM
Compound: CC[C@H](C)[C@H](NC(=O)[C@H](CCS(N)(=O)=O)NC(=O)CNC(=O)[C@H](CCCNC(=N)N)NC(=O)[C@H](CCCNC(=N)N)NC(C)=O)C(N)=O [Compound 7] (Ac-RRG[X6]I-NH2)

IC50 [4]: 1600 µM | Ki [4]: 963 µM | inhibition at 1000 µM [4]: 31%
Compound: O=S(=O)(O)Nc1ccc2ccccc2c1 [Compound 28]

% Inhibition of 2 mM RR-src at Inhibitor Concentration (100 μM) ([4]; Table V, inhibitor 100 μM): 30 (100 μM) % | inhibition at 100 µM [4, 10]: 30%
Compound: N=c1oc2c(O)cccc2cc1C(=O)Nc1cccc(O)c1 [Compound 50, reference compound]

% Inhibition at 100 μM (std. dev.) ([4]; Table IX, hydroxynaphthalene derivatives and published inhibitors): 30 (+/−15) % | inhibition at 100 µM [4, 7]: 30%
Compound: N=c1oc2c(O)cccc2cc1C(=O)Nc1cccc(O)c1 [Iminochromene 9TA, reference compound]

IC50 [3, 9]: 417 µM | Ki ([3]; read-out: Ki): ~9 µM and 9 µM | IC50 [3, 6]: 278 µM | Ki ([5]; Cellular Mimetic (C) conditions): 25 µM | IC50 [5, 8]: 41 µM | IC50 ([5]; IC50 μM (cond. C, 4 h preincubation), 4 h preincubation): 50 µM
Compound: Ac-RRGAI-NH2 [Compound 20]
